{
  "source": "BindingDB's records for doi:10.1021/acsmedchemlett.8b00220",
  "about": "(Merck, 2018)",
  "key": {"[1]": {"assay": "Inhibition of CYP3A4 (unknown origin) preincubated followed by substrate addition"}, "[2]": {"assay": "Inhibition of CYP3A4 (unknown origin) co-incubated with substrate"}},
  "data": [
    {"smiles": "CS[C@@]1(C(=O)Nc2ccc3[nH]nc(-c4ccc(F)cc4)c3c2)CCN(CC(=O)N2CC=C(c3ccc(-c4ncccn4)cc3)CC2)C1", "note": "[US8546404, 613]", "values": [
      {"measurement": "IC50", "setting": "[1]", "result": 2000, "unit": "nM"},
      {"measurement": "IC50", "setting": "[2]", "result": "> 30000", "unit": "nM"}
    ]}
  ]
}
